# Key:
# [1] = target: Delta-type opioid receptor (Homo sapiens, UniProt P41143)
# Substance-P receptor = Substance-P receptor (Homo sapiens, UniProt P25103)
# [2] = target: Gastrin/cholecystokinin type B receptor (Homo sapiens, UniProt P32239)
# Adenosine receptor A1 = Adenosine receptor A1 (Homo sapiens, UniProt P30542)
# Adenosine receptor A2a = Adenosine receptor A2a (Homo sapiens, UniProt P29274)
# Adenosine receptor A3 = Adenosine receptor A3 (Homo sapiens, UniProt P0DMS8)
# [3] = target: 5-hydroxytryptamine receptor 6 (Homo sapiens, UniProt P50406)
# [4] = target: Kappa-type opioid receptor (Homo sapiens, UniProt P41145)
# Mu-type opioid receptor = Mu-type opioid receptor (Homo sapiens, UniProt P35372)
# [5] = target: Sodium-dependent dopamine transporter (Homo sapiens, UniProt Q01959)
# [6] = target: Sodium-dependent noradrenaline transporter (Homo sapiens, UniProt P23975)
# [7] = target: 5-hydroxytryptamine receptor 7 (Homo sapiens, UniProt P34969)
# [8] = target: Beta-2 adrenergic receptor (Homo sapiens, UniProt P07550)
# [9] = target: 5-hydroxytryptamine receptor 3A (Homo sapiens, UniProt P46098)
# Substance-K receptor = Substance-K receptor (Homo sapiens, UniProt P21452)
# Neuromedin-K receptor = Neuromedin-K receptor (Homo sapiens, UniProt P29371)
# [10] = target: Muscarinic acetylcholine receptor M3 (Homo sapiens, UniProt P20309)
# [11] = target: Alpha-2B adrenergic receptor (Homo sapiens, UniProt P18089)
# [12] = target: Alpha-2C adrenergic receptor (Homo sapiens, UniProt P18825)
# [13] = target: Muscarinic acetylcholine receptor M2 (Homo sapiens, UniProt P08172)
# [14] = target: Muscarinic acetylcholine receptor M1 (Homo sapiens, UniProt P11229)
# [15] = target: Corticotropin-releasing factor receptor 2 (Homo sapiens) (UniProt Q13324)
# [16] = target: Muscarinic acetylcholine receptor M4 (Homo sapiens, UniProt P08173)
# [17] = target: Muscarinic acetylcholine receptor M5 (Homo sapiens, UniProt P08912)
# Cannabinoid receptor 1 = Cannabinoid receptor 1 (Homo sapiens, UniProt P21554)
# [18] = target: Beta-1 adrenergic receptor (Homo sapiens, UniProt P08588)
# [19] = target: Alpha-2A adrenergic receptor (Homo sapiens, UniProt P08913)
# Alpha-2A adrenergic receptor, sequence (P08913 whole entry): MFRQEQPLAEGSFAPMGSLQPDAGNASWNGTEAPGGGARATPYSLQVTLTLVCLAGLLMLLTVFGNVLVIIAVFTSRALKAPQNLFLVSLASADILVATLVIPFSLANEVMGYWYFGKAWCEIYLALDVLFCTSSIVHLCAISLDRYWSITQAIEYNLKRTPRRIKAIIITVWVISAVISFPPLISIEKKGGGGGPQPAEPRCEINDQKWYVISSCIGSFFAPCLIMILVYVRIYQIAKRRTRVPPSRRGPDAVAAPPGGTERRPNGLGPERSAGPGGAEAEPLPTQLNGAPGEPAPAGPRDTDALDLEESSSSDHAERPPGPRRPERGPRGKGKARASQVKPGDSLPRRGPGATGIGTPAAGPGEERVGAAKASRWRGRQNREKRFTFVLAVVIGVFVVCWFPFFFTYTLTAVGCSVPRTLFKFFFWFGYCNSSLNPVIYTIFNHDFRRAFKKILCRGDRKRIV
# Kappa-type opioid receptor, sequence (P41145 whole entry): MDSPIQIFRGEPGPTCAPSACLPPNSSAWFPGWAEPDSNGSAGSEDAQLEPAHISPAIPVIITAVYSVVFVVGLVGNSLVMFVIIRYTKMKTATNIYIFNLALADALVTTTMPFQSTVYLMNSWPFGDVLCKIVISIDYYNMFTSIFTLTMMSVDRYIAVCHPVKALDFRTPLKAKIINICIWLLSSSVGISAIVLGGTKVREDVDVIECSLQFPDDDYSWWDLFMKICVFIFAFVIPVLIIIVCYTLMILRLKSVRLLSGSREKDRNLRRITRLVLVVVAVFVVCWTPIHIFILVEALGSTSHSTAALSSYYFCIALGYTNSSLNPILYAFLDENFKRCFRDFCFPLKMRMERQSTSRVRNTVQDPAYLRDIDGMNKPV
# Substance-P receptor, sequence (P25103 whole entry): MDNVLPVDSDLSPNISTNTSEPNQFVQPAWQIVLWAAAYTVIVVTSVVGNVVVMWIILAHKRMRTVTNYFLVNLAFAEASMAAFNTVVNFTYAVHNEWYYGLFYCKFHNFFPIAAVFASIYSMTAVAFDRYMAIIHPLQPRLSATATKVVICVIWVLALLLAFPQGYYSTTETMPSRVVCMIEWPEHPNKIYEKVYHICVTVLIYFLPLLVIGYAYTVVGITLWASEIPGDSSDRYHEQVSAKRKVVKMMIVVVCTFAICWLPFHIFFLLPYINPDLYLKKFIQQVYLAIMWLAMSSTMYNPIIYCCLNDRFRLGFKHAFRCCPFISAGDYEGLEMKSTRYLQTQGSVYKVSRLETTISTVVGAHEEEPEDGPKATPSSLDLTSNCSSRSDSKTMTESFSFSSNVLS
# Alpha-2B adrenergic receptor, sequence (P18089 whole entry): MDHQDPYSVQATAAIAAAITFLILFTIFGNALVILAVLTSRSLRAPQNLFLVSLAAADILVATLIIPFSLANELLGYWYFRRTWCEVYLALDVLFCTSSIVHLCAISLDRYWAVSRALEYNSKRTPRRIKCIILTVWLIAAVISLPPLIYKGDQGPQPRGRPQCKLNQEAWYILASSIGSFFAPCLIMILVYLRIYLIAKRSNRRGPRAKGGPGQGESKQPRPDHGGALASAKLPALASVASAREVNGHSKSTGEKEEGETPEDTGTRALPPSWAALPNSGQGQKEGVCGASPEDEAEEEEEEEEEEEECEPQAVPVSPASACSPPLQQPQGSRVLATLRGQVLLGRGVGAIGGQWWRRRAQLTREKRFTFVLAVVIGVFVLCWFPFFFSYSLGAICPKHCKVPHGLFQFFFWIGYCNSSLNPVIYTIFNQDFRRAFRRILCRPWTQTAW
# 5-hydroxytryptamine receptor 6, sequence (P50406 whole entry): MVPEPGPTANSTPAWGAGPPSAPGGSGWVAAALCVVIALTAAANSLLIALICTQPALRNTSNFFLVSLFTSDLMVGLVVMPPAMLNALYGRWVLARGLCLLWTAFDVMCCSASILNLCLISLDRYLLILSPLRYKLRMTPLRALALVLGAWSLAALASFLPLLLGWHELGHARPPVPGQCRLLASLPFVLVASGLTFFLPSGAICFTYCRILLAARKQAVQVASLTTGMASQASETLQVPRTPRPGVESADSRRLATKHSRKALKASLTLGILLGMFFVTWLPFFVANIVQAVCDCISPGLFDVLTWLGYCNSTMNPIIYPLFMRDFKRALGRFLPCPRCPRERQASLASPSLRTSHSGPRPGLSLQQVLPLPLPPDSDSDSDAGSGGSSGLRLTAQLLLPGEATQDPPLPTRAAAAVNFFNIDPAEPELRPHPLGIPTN
# Beta-2 adrenergic receptor, sequence (P07550 whole entry): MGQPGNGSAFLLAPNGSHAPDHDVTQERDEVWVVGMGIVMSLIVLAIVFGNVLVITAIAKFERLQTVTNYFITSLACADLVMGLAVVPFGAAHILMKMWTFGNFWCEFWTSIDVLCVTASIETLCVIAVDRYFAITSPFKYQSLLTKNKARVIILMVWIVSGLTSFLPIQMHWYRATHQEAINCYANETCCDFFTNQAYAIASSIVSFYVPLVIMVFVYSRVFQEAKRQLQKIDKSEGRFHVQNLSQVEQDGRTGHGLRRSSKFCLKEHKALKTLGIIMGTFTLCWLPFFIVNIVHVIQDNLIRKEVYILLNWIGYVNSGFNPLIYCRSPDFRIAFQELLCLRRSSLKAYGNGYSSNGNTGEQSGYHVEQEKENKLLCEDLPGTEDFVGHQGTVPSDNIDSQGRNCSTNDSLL
# Muscarinic acetylcholine receptor M1, sequence (P11229 whole entry): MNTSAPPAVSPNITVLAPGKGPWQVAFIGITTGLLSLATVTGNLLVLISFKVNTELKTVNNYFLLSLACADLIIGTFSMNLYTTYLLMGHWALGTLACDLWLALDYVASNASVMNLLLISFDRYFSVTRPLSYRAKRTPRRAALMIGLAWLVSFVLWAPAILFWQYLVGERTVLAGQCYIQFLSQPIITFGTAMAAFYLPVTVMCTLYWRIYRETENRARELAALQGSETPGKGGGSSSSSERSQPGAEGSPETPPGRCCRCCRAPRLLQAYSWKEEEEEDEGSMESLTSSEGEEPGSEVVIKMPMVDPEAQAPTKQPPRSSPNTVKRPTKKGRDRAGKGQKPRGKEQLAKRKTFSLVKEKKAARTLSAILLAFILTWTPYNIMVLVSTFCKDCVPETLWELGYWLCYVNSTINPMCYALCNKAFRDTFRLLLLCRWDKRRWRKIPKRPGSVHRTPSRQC
# Muscarinic acetylcholine receptor M2, sequence (P08172 whole entry): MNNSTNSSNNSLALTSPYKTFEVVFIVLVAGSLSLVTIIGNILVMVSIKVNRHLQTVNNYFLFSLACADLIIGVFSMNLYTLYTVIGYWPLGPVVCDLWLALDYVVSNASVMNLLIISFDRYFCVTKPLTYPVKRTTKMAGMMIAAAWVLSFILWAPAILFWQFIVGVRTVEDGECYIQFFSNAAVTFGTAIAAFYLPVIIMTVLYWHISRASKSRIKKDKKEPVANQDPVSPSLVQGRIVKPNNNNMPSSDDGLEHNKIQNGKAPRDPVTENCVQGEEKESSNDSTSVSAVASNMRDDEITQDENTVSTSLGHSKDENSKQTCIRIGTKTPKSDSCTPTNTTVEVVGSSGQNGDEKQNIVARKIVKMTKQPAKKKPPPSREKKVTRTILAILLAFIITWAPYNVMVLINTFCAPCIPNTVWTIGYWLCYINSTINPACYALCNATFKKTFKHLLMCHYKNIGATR
# 5-hydroxytryptamine receptor 3A, sequence (P46098 whole entry): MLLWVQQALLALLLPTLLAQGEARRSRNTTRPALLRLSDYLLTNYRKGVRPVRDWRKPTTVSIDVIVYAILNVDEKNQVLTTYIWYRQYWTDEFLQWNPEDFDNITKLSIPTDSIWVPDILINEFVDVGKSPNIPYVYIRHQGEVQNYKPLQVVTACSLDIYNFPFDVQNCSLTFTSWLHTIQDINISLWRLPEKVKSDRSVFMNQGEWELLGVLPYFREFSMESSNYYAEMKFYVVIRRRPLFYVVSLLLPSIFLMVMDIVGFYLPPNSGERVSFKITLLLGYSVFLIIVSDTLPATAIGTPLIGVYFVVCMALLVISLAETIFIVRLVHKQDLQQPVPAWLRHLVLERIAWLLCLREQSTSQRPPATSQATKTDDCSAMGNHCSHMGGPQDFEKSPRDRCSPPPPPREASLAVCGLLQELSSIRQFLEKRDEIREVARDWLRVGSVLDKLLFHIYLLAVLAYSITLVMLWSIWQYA
# Adenosine receptor A1, sequence (P30542 whole entry): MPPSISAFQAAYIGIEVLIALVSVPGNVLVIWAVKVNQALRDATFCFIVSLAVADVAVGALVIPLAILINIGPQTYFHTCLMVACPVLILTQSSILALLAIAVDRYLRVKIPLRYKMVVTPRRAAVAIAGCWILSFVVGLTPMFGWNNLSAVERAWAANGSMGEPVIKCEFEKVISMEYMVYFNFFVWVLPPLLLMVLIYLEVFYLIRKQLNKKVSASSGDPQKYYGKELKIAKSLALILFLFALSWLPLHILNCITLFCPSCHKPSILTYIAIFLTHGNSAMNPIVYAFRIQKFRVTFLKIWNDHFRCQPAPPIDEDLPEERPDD
# Alpha-2C adrenergic receptor, sequence (P18825 whole entry): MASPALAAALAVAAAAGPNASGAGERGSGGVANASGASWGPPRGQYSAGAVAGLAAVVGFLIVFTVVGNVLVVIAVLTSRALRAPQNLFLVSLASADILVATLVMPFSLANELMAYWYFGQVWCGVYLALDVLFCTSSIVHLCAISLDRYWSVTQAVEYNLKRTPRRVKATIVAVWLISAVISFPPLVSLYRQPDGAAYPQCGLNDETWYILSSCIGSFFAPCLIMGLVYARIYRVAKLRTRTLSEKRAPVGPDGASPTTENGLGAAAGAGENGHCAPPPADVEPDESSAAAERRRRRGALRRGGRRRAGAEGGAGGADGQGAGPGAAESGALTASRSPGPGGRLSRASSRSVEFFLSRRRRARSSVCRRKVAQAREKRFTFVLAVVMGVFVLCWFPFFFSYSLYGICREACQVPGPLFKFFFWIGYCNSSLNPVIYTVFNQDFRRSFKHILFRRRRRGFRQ
smiles,measurement,setting,value
COc1cc(C(C)=O)ccc1OCCCN1CCC(c2noc3cc(F)ccc23)CC1,Ki,[1],> 10 µM
same,Ki,Substance-P receptor,> 10 µM
same,Ki,[2],9.33 µM
same,Ki,Adenosine receptor A1,> 10 µM
same,Ki,Adenosine receptor A2a,> 10 µM
same,Ki,Adenosine receptor A3,> 10 µM
same,Ki,[3],0.0631 µM
same,Ki,[4],> 10 µM
same,Ki,Mu-type opioid receptor,> 10 µM
same,Ki,[5],2.95 µM
same,Ki,[6],1.48 µM
same,Ki,[7],0.112 µM
same,Ki,[8],> 10 µM
same,Ki,[9],> 10 µM
same,Ki,Substance-K receptor,> 10 µM
same,Ki,Neuromedin-K receptor,> 10 µM
same,Ki,[10],> 10 µM
same,Ki,[11],0.162 µM
same,Ki,[12],0.0162 µM
same,Ki,[13],3.31 µM
same,Ki,[14],4.9 µM
same,Ki,[15],> 10 µM
same,Ki,[16],8.32 µM
same,Ki,[17],> 10 µM
same,Ki,Cannabinoid receptor 1,> 10 µM
same,Ki,[18],> 10 µM
same,Ki,[19],0.162 µM

# Source: BindingDB's records for doi:10.1016/S0893-133X(01)00285-8 (Novartis Pharma, 2001)
